Reference: US20070202179A1, “Low Dose Pharmaceutical Products” (priority 2004, published 2007)

Target: T1, human PPAR alpha (Homo sapiens, UniProt Q07869)
T1 sequence (Q07869 1-468): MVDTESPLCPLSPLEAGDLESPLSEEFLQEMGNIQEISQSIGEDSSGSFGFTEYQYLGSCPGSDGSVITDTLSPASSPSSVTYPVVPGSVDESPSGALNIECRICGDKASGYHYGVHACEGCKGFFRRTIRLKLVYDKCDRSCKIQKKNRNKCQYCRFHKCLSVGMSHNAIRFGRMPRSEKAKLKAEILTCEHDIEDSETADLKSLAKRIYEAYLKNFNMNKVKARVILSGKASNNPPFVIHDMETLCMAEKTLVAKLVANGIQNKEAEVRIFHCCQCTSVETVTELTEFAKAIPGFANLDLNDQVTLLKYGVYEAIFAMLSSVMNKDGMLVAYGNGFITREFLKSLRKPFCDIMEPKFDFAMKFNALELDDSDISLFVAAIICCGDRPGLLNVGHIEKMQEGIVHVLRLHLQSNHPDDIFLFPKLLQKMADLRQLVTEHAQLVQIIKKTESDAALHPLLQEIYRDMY
Test: Effectiveness of Compound 1 at very low daily dosage regimes
Assay type: in vivo
Conditions: investigated for dyslipidemia, syndrome X and atherosclerosis
Description: The compound of formula (1) is a particularly preferred PPAR alpha agonist and is described in WO 01/40207 as being of use in human PPAR alpha mediated diseases. The dosage regime contemplated in WO 01/40207 is 0.02-5000 mg per day. […] Thus the invention further provides a pharmaceutical composition comprising less than 1-100 μg Compound (1) or pharmaceutically acceptable salts, solvates and physiologically functional derivatives thereof together with a pharmaceutically acceptable carrier. Preferably the composition comprises less than 20 μg, more preferably 1-18 μg, most preferably 1-10 μg.

Cc1nc(-c2ccc(C(F)(F)F)cc2)sc1C(=O)NCc1ccc(OC(C)(C)C(=O)O)cc1 [Compound 1, 2-methyl-2-[4-{[(4-methyl-2-[4-trifluoromethylphenyl]-thiazol-5-ylcarbonyl)amino]methyl}phenoxy]propionic acid]
Dosage regime at which the compound is effective: less than 0.02 mg per day
